Numbers after ± are expanded uncertainties.
Test: activity coefficient (dimensionless); of the first substance listed, at infinite dilution; xn = mol fraction of the nth substance listed
Settings: 332.85 K; 101 kPa; Liquid; Chromatography; x1 = 0
In the case of `CC#N` [acetonitrile] + CCCCCC[n+]1ccn(C)c1.FC(F)(F)C(F)(F)[P-](F)(F)(F)(C(F)(F)C(F)(F)F)C(F)(F)C(F)(F)F, the activity coefficient is reported as 0.295 ± 0.031.

Same assay, conditions: 333.15 K; 101 kPa; Liquid; Chromatography; x1 = 0
Molecule `Cc1ccccc1C` [1,2-dimethylbenzene] + CCCCCCCCCCn1cc[n+](CCCCCCCCCC)c1C.O=S(=O)([N-]S(=O)(=O)C(F)(F)F)C(F)(F)F has an activity coefficient of 0.616 ± 0.043. Work on `Cc1cccc(C)c1` [1,3-dimethylbenzene] + CCCCCCCCCCn1cc[n+](CCCCCCCCCC)c1C.O=S(=O)([N-]S(=O)(=O)C(F)(F)F)C(F)(F)F yielded an activity coefficient of 0.653 ± 0.045. Work on `Cc1ccc(C)cc1` [1,4-dimethylbenzene] + CCCCCCCCCCn1cc[n+](CCCCCCCCCC)c1C.O=S(=O)([N-]S(=O)(=O)C(F)(F)F)C(F)(F)F yielded an activity coefficient of 0.66 ± 0.045. `C1COCCO1` [1,4-dioxane] + CCCCCCCCCCn1cc[n+](CCCCCCCCCC)c1C.O=S(=O)([N-]S(=O)(=O)C(F)(F)F)C(F)(F)F showed an activity coefficient of 0.46 ± 0.036. With `C#CCCCCC` [1-heptyne] + CCCCCCCCCCn1cc[n+](CCCCCCCCCC)c1C.O=S(=O)([N-]S(=O)(=O)C(F)(F)F)C(F)(F)F the activity coefficient was 1.06 ± 0.067. Molecule `C#CCCCC` [1-hexyne] + CCCCCCCCCCn1cc[n+](CCCCCCCCCC)c1C.O=S(=O)([N-]S(=O)(=O)C(F)(F)F)C(F)(F)F has an activity coefficient of 0.917 ± 0.058. `CCC[N+](=O)[O-]` [1-nitropropane] + CCCCCCCCCCn1cc[n+](CCCCCCCCCC)c1C.O=S(=O)([N-]S(=O)(=O)C(F)(F)F)C(F)(F)F gave an activity coefficient of 0.487 ± 0.037. `OCC(F)(F)F` [2,2,2-trifluoroethanol] + CCCCCCCCCCn1cc[n+](CCCCCCCCCC)c1C.O=S(=O)([N-]S(=O)(=O)C(F)(F)F)C(F)(F)F showed an activity coefficient of 0.379 ± 0.033. `CC(C)CO` [2-methyl-1-propanol] + CCCCCCCCCCn1cc[n+](CCCCCCCCCC)c1C.O=S(=O)([N-]S(=O)(=O)C(F)(F)F)C(F)(F)F gave an activity coefficient of 1.17 ± 0.075. Work on `CCC(C)CC` [3-methylpentane] + CCCCCCCCCCn1cc[n+](CCCCCCCCCC)c1C.O=S(=O)([N-]S(=O)(=O)C(F)(F)F)C(F)(F)F yielded an activity coefficient of 1.68 ± 0.11. `CC#N` [acetonitrile] + CCCCCCCCCCn1cc[n+](CCCCCCCCCC)c1C.O=S(=O)([N-]S(=O)(=O)C(F)(F)F)C(F)(F)F showed an activity coefficient of 0.453 ± 0.036.

Same assay, conditions: 342.75 K; 101 kPa; Liquid; Chromatography; x1 = 0
`Cc1ccccc1C` [1,2-dimethylbenzene] + CCCCn1cc[n+](C)c1.O=S(=O)([N-]S(=O)(=O)C(F)(F)C(F)(F)F)C(F)(F)C(F)(F)F showed an activity coefficient of 1.89 ± 0.13. For `Cc1cccc(C)c1` [1,3-dimethylbenzene] + CCCCn1cc[n+](C)c1.O=S(=O)([N-]S(=O)(=O)C(F)(F)C(F)(F)F)C(F)(F)C(F)(F)F, the activity coefficient was 2.03 ± 0.14. In the case of `Cc1ccc(C)cc1` [1,4-dimethylbenzene] + CCCCn1cc[n+](C)c1.O=S(=O)([N-]S(=O)(=O)C(F)(F)C(F)(F)F)C(F)(F)C(F)(F)F, the activity coefficient is reported as 2.03 ± 0.14. Work on `C1COCCO1` [1,4-dioxane] + CCCCn1cc[n+](C)c1.O=S(=O)([N-]S(=O)(=O)C(F)(F)C(F)(F)F)C(F)(F)C(F)(F)F yielded an activity coefficient of 0.607 ± 0.042. Work on `C#CCCCCC` [1-heptyne] + CCCCn1cc[n+](C)c1.O=S(=O)([N-]S(=O)(=O)C(F)(F)C(F)(F)F)C(F)(F)C(F)(F)F yielded an activity coefficient of 3.76 ± 0.26. Work on `C#CCCCC` [1-hexyne] + CCCCn1cc[n+](C)c1.O=S(=O)([N-]S(=O)(=O)C(F)(F)C(F)(F)F)C(F)(F)C(F)(F)F yielded an activity coefficient of 2.73 ± 0.19. Molecule `CCC[N+](=O)[O-]` [1-nitropropane] + CCCCn1cc[n+](C)c1.O=S(=O)([N-]S(=O)(=O)C(F)(F)C(F)(F)F)C(F)(F)C(F)(F)F has an activity coefficient of 0.821 ± 0.053. With `OCC(F)(F)F` [2,2,2-trifluoroethanol] + CCCCn1cc[n+](C)c1.O=S(=O)([N-]S(=O)(=O)C(F)(F)C(F)(F)F)C(F)(F)C(F)(F)F the activity coefficient was 0.412 ± 0.034. Work on `CC(C)CC(C)(C)C` [2,2,4-trimethylpentane] + CCCCn1cc[n+](C)c1.O=S(=O)([N-]S(=O)(=O)C(F)(F)C(F)(F)F)C(F)(F)C(F)(F)F yielded an activity coefficient of 11.7 ± 0.8. For `CC(C)CO` [2-methyl-1-propanol] + CCCCn1cc[n+](C)c1.O=S(=O)([N-]S(=O)(=O)C(F)(F)C(F)(F)F)C(F)(F)C(F)(F)F, the activity coefficient was 1.84 ± 0.12. `CCC(C)CC` [3-methylpentane] + CCCCn1cc[n+](C)c1.O=S(=O)([N-]S(=O)(=O)C(F)(F)C(F)(F)F)C(F)(F)C(F)(F)F gave an activity coefficient of 7.79 ± 0.53. For `CC#N` [acetonitrile] + CCCCn1cc[n+](C)c1.O=S(=O)([N-]S(=O)(=O)C(F)(F)C(F)(F)F)C(F)(F)C(F)(F)F, the activity coefficient was 0.514 ± 0.038.

Same assay, conditions: 343.15 K; 101 kPa; Liquid; Chromatography; x1 = 0
Work on `Cc1ccccc1C` [1,2-dimethylbenzene] + CCCCCCCCCCn1cc[n+](CCCCCCCCCC)c1C.O=S(=O)([N-]S(=O)(=O)C(F)(F)F)C(F)(F)F yielded an activity coefficient of 0.603 ± 0.042. `Cc1cccc(C)c1` [1,3-dimethylbenzene] + CCCCCCCCCCn1cc[n+](CCCCCCCCCC)c1C.O=S(=O)([N-]S(=O)(=O)C(F)(F)F)C(F)(F)F gave an activity coefficient of 0.663 ± 0.045. `Cc1ccc(C)cc1` [1,4-dimethylbenzene] + CCCCCCCCCCn1cc[n+](CCCCCCCCCC)c1C.O=S(=O)([N-]S(=O)(=O)C(F)(F)F)C(F)(F)F showed an activity coefficient of 0.657 ± 0.045. For `C1COCCO1` [1,4-dioxane] + CCCCCCCCCCn1cc[n+](CCCCCCCCCC)c1C.O=S(=O)([N-]S(=O)(=O)C(F)(F)F)C(F)(F)F, the activity coefficient was 0.453 ± 0.036. Molecule `C#CCCCCC` [1-heptyne] + CCCCCCCCCCn1cc[n+](CCCCCCCCCC)c1C.O=S(=O)([N-]S(=O)(=O)C(F)(F)F)C(F)(F)F has an activity coefficient of 1.06 ± 0.067.
